Reference: US11013745B2, “Triazolopyrimidine, triazolopyridine compounds, and the composition thereof for treating PRC2-mediated diseases” (SHANGHAI INSTITUTE OF MATERIA MEDICA, CHINESE ACADEMY OF …, priority 2017, dated 2021)
pIC50: −log10 of the molar value.

Key:
[1] = target: PRC2 enzyme (Homo sapiens (Human), UniProt O75530); experiment: PRC2 enzyme activity, TR-FRET method; assay type: biochemical
Outline: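 Enzyme preincubated with compound 30 min at room temperature; reaction started with biotin-labeled histone H3 peptide and SAM, run 4 h at room temperature.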

[2] = Liver microsomal stability (mouse); assay type: in vitro ADME
[3] = Liver microsomal stability (rat); assay type: in vitro ADME
Outline: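 Human, mouse and rat liver microsomes were incubated with NADPH and MgCl2 in 0.1 M Tris pH 7.4, with compound at a 0.2 μM working solution. Remaining compound was quantified by LC/MS over the incubation time. The slope of log remaining versus time gave Clint, which was scaled to predicted Cl, Clhep and % MF.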

Sequence of PRC2 enzyme (O75530 whole entry): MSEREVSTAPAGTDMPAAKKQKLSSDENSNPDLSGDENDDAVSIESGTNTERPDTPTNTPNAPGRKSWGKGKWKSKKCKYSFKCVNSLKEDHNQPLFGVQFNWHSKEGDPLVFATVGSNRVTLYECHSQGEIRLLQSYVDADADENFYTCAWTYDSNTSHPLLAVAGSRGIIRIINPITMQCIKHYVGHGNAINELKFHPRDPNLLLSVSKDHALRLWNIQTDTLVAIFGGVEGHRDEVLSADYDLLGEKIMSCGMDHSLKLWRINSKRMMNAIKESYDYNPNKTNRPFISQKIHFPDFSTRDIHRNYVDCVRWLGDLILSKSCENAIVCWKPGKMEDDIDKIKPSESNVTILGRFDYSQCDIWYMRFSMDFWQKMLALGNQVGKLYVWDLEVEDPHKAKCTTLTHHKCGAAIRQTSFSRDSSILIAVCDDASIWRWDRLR
Sequence of PRC2 enzyme (Q15910 whole entry partner): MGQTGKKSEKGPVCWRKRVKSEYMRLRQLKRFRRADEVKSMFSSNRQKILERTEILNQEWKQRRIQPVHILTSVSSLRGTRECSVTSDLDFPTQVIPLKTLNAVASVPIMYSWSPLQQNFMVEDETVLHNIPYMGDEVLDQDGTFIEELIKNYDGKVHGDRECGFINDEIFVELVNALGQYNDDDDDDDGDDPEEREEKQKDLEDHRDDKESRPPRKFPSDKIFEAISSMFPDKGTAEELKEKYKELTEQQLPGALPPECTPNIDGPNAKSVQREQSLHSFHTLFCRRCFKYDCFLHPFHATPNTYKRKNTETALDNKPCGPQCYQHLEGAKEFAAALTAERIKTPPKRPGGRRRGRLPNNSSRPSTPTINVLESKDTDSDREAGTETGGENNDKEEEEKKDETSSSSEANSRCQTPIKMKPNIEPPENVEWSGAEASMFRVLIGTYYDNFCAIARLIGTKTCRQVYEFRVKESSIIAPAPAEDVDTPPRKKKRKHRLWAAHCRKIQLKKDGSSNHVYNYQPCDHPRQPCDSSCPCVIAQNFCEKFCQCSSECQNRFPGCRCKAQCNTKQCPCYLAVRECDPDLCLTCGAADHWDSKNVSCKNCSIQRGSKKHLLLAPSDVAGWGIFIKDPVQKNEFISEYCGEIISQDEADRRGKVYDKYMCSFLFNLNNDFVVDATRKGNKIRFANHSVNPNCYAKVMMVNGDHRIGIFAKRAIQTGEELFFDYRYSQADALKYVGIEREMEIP
Sequence of PRC2 enzyme (Q15022 whole entry partner): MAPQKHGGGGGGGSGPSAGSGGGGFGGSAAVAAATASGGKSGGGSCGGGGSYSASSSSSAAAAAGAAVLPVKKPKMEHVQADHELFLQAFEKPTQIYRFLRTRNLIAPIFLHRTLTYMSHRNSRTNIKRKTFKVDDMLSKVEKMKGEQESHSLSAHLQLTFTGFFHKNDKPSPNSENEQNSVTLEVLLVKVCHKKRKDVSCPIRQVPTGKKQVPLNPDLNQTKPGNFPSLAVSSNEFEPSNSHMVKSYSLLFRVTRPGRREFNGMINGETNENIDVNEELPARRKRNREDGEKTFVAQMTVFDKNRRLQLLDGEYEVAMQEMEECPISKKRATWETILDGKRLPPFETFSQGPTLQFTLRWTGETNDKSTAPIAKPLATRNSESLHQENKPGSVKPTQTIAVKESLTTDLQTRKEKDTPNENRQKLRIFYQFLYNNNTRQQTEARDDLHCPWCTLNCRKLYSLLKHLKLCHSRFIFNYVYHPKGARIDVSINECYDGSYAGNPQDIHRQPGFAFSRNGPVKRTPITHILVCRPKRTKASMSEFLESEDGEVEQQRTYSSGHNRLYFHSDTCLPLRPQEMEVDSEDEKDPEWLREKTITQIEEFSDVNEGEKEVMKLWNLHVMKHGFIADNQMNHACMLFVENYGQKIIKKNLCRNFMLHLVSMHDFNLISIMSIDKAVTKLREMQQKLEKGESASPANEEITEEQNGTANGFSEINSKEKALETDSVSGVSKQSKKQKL

pIC50 [1]: 7.72
Clearance rate in vivo Clint In Vivo Extpl ([2]; mouse liver microsomes): 1.50 mL/min
Intrinsic clearance rate in vivo Clint In Vitro ([2]; mouse liver microsomes): 22.2 mL/min/gprot
Liver clearance rate Clint Hep In Vivo Extpl ([2]; mouse liver microsomes): 1.00 mL/min
Metabolic bioavailability MF % ([2]; mouse liver microsomes): 66.7%
half-life ([2]; mouse, liver microsomes, pH 7.4, mouse liver microsomes, read-out: Half life T-half): 94.6 min
Clearance rate in vivo Clint In Vivo Extpl ([3]; rat liver microsomes): 15.9 mL/min
Intrinsic clearance rate in vivo Clint In Vitro ([3]; rat liver microsomes): 35.2 mL/min/gprot
Liver clearance rate Clint Hep In Vivo Extpl ([3]; rat liver microsomes): 8.85 mL/min
Metabolic bioavailability MF % ([3]; rat liver microsomes): 53.9%
half-life ([3]; rat, liver microsomes, pH 7.4, rat liver microsomes, read-out: Half life T-half): 55.2 min
SMILES: CS(=O)(=O)N1CC=C(c2cnc(NCc3c(F)ccc4c3CCO4)n3cnnc23)CC1 [E-Y13]
